PubChem BioAssay AID463229 (Broad Institute, 2010)
“And” between values parts separate entries of the source, which are not always exact repeats. Equal values may be shown once. The source made the active and inactive calls.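 The calls were made as follows: active = compounds raising the signal whose fitted half-maximal concentration is at or below their top tested dose (cut at about 25 µM in these data); inconclusive = flat fit at 30 to 70% activity, or a poor fit; inactive = the rest.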

Tested on: INS-1E rat beta cells, no cytokines, CellTiter-Glo ATP, 48 h
Assay: cytokine-free beta-cell viability effect – INS-1E rat cells, ATP luminescence, cherry pick, counter-screen for beta-cell apoptosis protection project, dose response (AID 463229)

Row | SMILES | AC50
1 | c1ccc(Nc2nc(NCc3ccco3)c3ccccc3n2)cc1 | 8.02 µM
2 | CCCCCCCCCCOC(=O)Cn1c(COc2ccccc2)[n+](C)c2ccccc21 | 4.25 µM
3 | C[n+]1c2n(c3ccccc31)N=C(c1ccc(Cl)cc1)CS2 | 4.29 µM
4 | CC[C@@]1(O)C(=O)OCc2c1cc1n(c2=O)Cc2cc3c(N)cccc3nc2-1 | < 0.195 µM
5 | CC(C)c1cccc(C(C)C)c1OC(=O)[C@H]1OC(C(C)(C)C)=C[C@@H]1c1ccccc1 | 7.8 µM
6 | Cc1nnsc1C(=O)N/N=C/c1ccc2ccccc2c1O | 1.81 µM
7 | CCN(CC)c1ccc(/C=N/NC(=O)Cc2cccs2)c(O)c1 | 4.5 µM
8 | CNC[C@@H](CC1CCCCC1)NC[C@H](CC(C)C)NCCc1cccc(C(F)(F)F)c1 | 4.4 µM
9 | Cc1ccc(S(=O)(=O)Nc2ccc(NC(=O)Nc3cccc(C(F)(F)F)c3)cc2)cc1 | 11.9 µM
10 | Cc1c(C(=O)N(Cc2ccccc2)C(C)C)oc2ccc(S(=O)(=O)N3CCOCC3)cc12 | > 26 µM (inactive)
11 | COC1=C(Nc2ccccc2OC)C(=O)c2ccccc2C1=O | > 26 µM (inactive)
12 | Cc1ccc(CSC(Nc2ccc(F)cc2)=C(C#N)C#N)cc1 | 4.11 µM
13 | CCN1/C(=C/C=C/c2sc3ccccc3[n+]2CC)Sc2ccccc21 | < 0.195 µM
14 | CC(C)c1nc(-c2ccccc2)c(-c2ccccc2)[nH]1 | 6.81 µM
15 | CN(C)c1nc(N/N=C/c2ccccc2O)nc(Nc2ccc(F)cc2)n1 | 11.3 µM
16 | CCN(CC)c1ccc(/C=N/Nc2nc(C)cc(C)n2)c(O)c1 | 15.8 µM
17 | CC[C@H](C)Cc1cn([C@@H](CCCCNC(=O)OC(C)(C)C)C(=O)NCCCCCCCCCCC(=O)N2CCN(C(=O)OC(C)(C)C)CC2)nn1 | 20.2 µM
18 | N/C(=N\NC(=O)c1sccc1OCc1ccc(Cl)cc1Cl)c1ccccn1 | 11.8 µM
19 | CCCCCCSc1cc(-c2nc3ccc(C)cn3c2NCCCC)ccc1OC | 6.79 µM
20 | Cc1ccn2c(Nc3ccccc3C)c(-c3ccccn3)nc2c1 | 9.55 µM
21 | Cc1cc(N/N=C/c2ccc(O)cc2O)nc(-c2ccccc2O)n1 | 7.47 µM
22 | COc1ccccc1C(CCNCc1ccc(N(C)C)cc1)c1ccc(OC(C)C)cc1 (stereo unspecified) | 9.78 µM

Row | SMILES | AC50
23 | Cc1ccccc1N1CCN(Cc2c[nH]c3ccccc23)CC1 | 7.37 µM
24 | C/C(=N/NC(=O)c1cccs1)c1c(C)[nH]n(-c2nc3ccccc3s2)c1=O | 16.2 µM
25 | O=C(NNC(=S)Nc1ccc(Cl)c(Cl)c1)c1ccccn1 | 4.35 µM
26 | CC(C)(C)c1cc[n+](C2=C([O-])c3ccccc3C(=O)/C2=N\S(=O)(=O)c2cccs2)cc1 | 7.44 µM
27 | C#CCn1c(=NC(=O)c2ccc(S(=O)(=O)N3CCc4ccccc4C3)cc2)sc2cc(S(N)(=O)=O)ccc21 | 3.64 µM
28 | CCc1ccc2[nH]c(=O)c(C3C(C#N)=C(N)Oc4c3ccc3cccnc43)cc2c1 (stereo unspecified) | 5.4 µM
29 | Cc1ccc(NC2=C/C(=N\S(=O)(=O)c3cccs3)c3ccccc3C2=O)c(C)c1 | 1.88 µM
30 | CCC1=NN(C(=O)c2ccccc2O)C(O)(c2ccccc2)C1 (stereo unspecified) | 15.6 µM
31 | COc1cc(Cl)c(NC2=CC(=O)C(=O)c3ccccc32)c(OC)c1 | 8.01 µM
32 | Cn1cccc1C1C=C(c2ccc(C(C)(C)C)cc2)Nc2ncnn21 (stereo unspecified) | 3.2 µM
33 | Cc1ccc(C(=O)OCn2ncc(Cl)c(Cl)c2=O)cc1 | 7.77 µM
34 | Fc1ccccc1/C=N/Nc1nc(-c2ccccn2)nc2ccccc12 | 3.49 µM
35 | Cc1ccc2nc(N(CCCN(C)C)C(=O)c3ccc(S(=O)(=O)N4CCc5ccccc5C4)cc3)sc2c1 | 6.99 µM
36 | Cc1cc(C)nc(SCC(=O)Nc2ccnc3ccccc23)n1 | 7.55 µM
37 | COc1ccc(-c2csc(NC(=O)c3ccccc3NS(=O)(=O)c3ccc(F)c(F)c3)n2)cc1 | 3.52 µM
38 | COc1ccc(-c2c[n+]3c(n2-c2ccc(C)cc2)CCCCC3)cc1 | 0.317 µM
39 | Cc1ccc(NC(=O)C2CCN(S(=O)(=O)c3ccc4c(c3)NC(=O)C(C)S4)CC2)cc1Cl (stereo unspecified) | 4.64 µM
40 | CC(=O)Nc1sc2c(c1-c1nc3ccccc3s1)CCN(C(C)C)C2 | 5.11 µM
41 | CC(C)Nc1ccc(Nc2ccccc2)cc1 | 7.5 µM
42 | COC(=O)C1CN(C#N)N(c2ccc(Cl)cc2)C12c1ccccc1-c1ccccc12 (stereo unspecified) | 4.26 µM
43 | NS(=O)(=O)c1ccc(N/N=C/c2cn(-c3ccccc3)nc2-c2cccs2)c([N+](=O)[O-])c1 | 5.61 µM
44 | O=C(N/N=C/c1ccc(O)c2ncccc12)c1cccc(Br)c1 | 3.05 µM

Row | SMILES | AC50
45 | C#CCOCCOCCOCCNc1nc(N2CCN(C(=O)CCCCCCCCCCNC(=O)[C@H](CCCCN)n3cc(CCO)nn3)CC2)nc(N2CCN(C(=O)CCCCCCCCCCNC(=O)[C@H](CCCCN)n3cc(C[C@@H](C)CC)nn3)CC2)n1 | 10.6 µM
46 | COC(=O)c1ccc(NC(=O)c2nc(S(=O)(=O)Cc3cccc(C)c3)ncc2Cl)cc1 | 10.8 µM
47 | O=C(NCC#CCSc1nnc(-c2cccc3ccccc23)o1)c1cccs1 | 1.9 µM
48 | CC1CCC(C(C)C)C(OC(=O)C[n+]2cc(-c3ccc(Cl)cc3)n3c2CCCCC3)C1 (stereo unspecified) | 7.32 µM
49 | Fc1ccc2nc(Nc3nc4c(F)cc(F)cc4s3)sc2c1 | 7.69 µM
50 | O=C(NCCOCCOCCNC(=O)c1cccnc1)c1cccnc1 | 3.83 µM
51 | CCCCCCCCCCOC(=O)Cn1c(COc2ccc(OC)cc2)[n+](C)c2ccccc21 | 4.96 µM and 3.95 µM
52 | C/C(=N\NC(=O)C(C)n1nc(C)c([N+](=O)[O-])c1C)c1ccccc1O (stereo unspecified) | 12.5 µM
53 | Cc1cc(C(=O)N/N=C/c2cc(Br)cc(Br)c2OC(=O)c2cccc(F)c2)n[nH]1 | 4.79 µM
54 | O=C(CCSc1nc2ccccc2s1)N/N=C/c1c(O)ccc2ccccc12 | 5.5 µM
55 | CCCCCCCCCCCCCCCC[N+](C)(C)CCN(Cc1ccc(OC)cc1)c1ncccn1 | 4.23 µM
56 | COc1cccc(F)c1C(C[N+](=O)[O-])c1c(N)n(C)c(=O)n(C)c1=O (stereo unspecified) | 8.3 µM
57 | CCc1ccc(C2CC(c3cccc(Cl)c3)n3nc(N)nc3N2)cc1 (stereo unspecified) | 14.7 µM
58 | Cc1ccc(-c2[nH]ncc2/C=N/n2c(COc3ccccc3C)nc3ccccc3c2=O)cc1 | 8.38 µM
59 | COc1ccc(O)c(/C=N/NC(=O)c2ccc(OCc3cccc(Br)c3)cc2)c1 | 19.8 µM
60 | COc1ccc(/C=C/c2nc3ccccc3n2C)cc1 | 3.13 µM
61 | Cc1nc2c(-c3ccc(Cl)cc3)c(C)[nH]n2c(=O)c1Cc1ccccc1 | 5.46 µM
62 | FC(F)(F)c1nnc2c(Sc3ccccc3)nc3ccc(Cl)cc3n12 | 11.1 µM
63 | CCN1/C(=C/c2ccc3cc(C)ccc3[n+]2CC)Sc2ccc3sccc3c21 | 0.316 µM
64 | Cc1cc(C)n(-c2nc(Nc3ccccc3C(F)(F)F)nc(-n3nc(C)cc3C)n2)n1 | 6.87 µM
65 | O=C(N/N=C/c1ccc([N+](=O)[O-])o1)c1cc2ccccc2o1 | 6.22 µM
66 | O=C(CCC1CCCC1)Nc1ccc(C(=O)NCc2cccnc2)cc1 | < 0.195 µM

Row | SMILES | AC50
67 | CCC(=O)NC(c1cccs1)c1cc(Cl)c2cccnc2c1O (stereo unspecified) | 5.49 µM
68 | NC(N)=N/N=C/c1ccc(OCc2ccccc2)cc1 | 14.7 µM
69 | CC(=O)NC(c1ccc(C(C)C)cc1)c1ccc2cccnc2c1O (stereo unspecified) | 1.98 µM
70 | Cc1cc(C)c2nc(NNC(=O)c3ccc(S(=O)(=O)N4CC(C)CC(C)C4)cc3)sc2c1 (stereo unspecified) | 4.75 µM
71 | COc1cccc(/C=N/NC(=O)c2c(C)nc3ccc(Cl)cn23)c1O | 3.81 µM
72 | Clc1ccc2nnnc(-c3ccccc3)c2c1 | 7.48 µM
73 | CC1CCC/C=C/C2CC(O)CC2C(O)/C=C/C(=O)O1 (stereo unspecified) | 0.759 µM
74 | Cc1ccc(S(=O)(=O)/N=C2/C=C(Sc3ncn[nH]3)C(=O)c3ccccc32)cc1 | 8.08 µM
75 | O=C(COc1ccccc1-c1ccccc1)N/N=C/c1ccc2ccccc2c1 | 8.67 µM
76 | O=C1/C(=C\c2cccnc2)CN(Cc2ccccc2)C/C1=C\c1cccnc1 | 7.58 µM
77 | O=C1/C(=C/c2ccc(N3CCOCC3)o2)SC(=Nc2ccccc2)N1CCc1c[nH]c2ccccc12 | > 26 µM (inactive)
78 | CC(NC(=O)c1cc(COc2ccc3ncccc3c2)on1)c1ccc(F)cc1 (stereo unspecified) | 5.86 µM
79 | CCOc1cc(/C=C2\CCC/C(=C\c3cc(Cl)c(O)c(OCC)c3)C2=O)cc(Cl)c1O | 7.28 µM
80 | CC(=O)Nc1ccccc1OCC(=O)c1cc(C)n(Cc2cccs2)c1C | 1.01 µM
81 | C/C(=N/NC(=O)c1ccc(C(C)(C)C)cc1)c1ccccn1 | 2.1 µM
82 | Cc1ccc(C2CC(c3ccc(C)cc3)n3nc(N)nc3N2)cc1 (stereo unspecified) | 17.9 µM
83 | COc1ccc(Cc2nnc(N/N=C/c3ccc(O)cc3)[nH]c2=O)cc1OC | 4.32 µM
84 | CCOC(=O)c1c(NC(=O)/C=C/C(=O)O)sc(C)c1-c1ccc(C(C)(C)C)cc1 | 7.17 µM
85 | CCN(CC)c1ccc(/C=N/NC(=O)c2c(Cl)cnn2C)c(O)c1 | 1.5 µM
86 | CCCNC(=O)c1ccc2c(=O)c(O)c(-c3cccc(Br)c3)[nH]c2c1 | 4.63 µM
87 | Cn1cc(C(=O)N/N=C/c2c(O)ccc3ccccc23)ccc1=O | 2.5 µM
88 | Oc1cccc(C(Nc2nccs2)c2ccc3cccnc3c2O)c1 (stereo unspecified) | 2.54 µM

Row | SMILES | AC50
89 | CCn1c(SCC(=O)Nc2cc(C)on2)nc2sc3c(c2c1=O)CCCC3 | 16.7 µM
90 | O=C(Nc1cc(S(=O)(=O)Nc2ccc(Cl)cc2)ccc1N1CCCCC1)c1ccc(F)cc1 | 7.6 µM
91 | O=C(CCC(=O)Nc1ccc(Cl)cc1Cl)N/N=C/c1ccc([N+](=O)[O-])o1 | 13.8 µM
92 | CCC(=O)NC(c1ccc(OC)cc1)c1cc(Cl)c2cccnc2c1O (stereo unspecified) | 6.63 µM
93 | Cc1cc(C(C)(C)CC(C)(C)C)ccc1OCCOCC[N+](C)(C)Cc1ccccc1 | 4.07 µM
94 | O=C(Nc1cccc(NC(=O)c2cc([N+](=O)[O-])ccc2Cl)n1)c1cc([N+](=O)[O-])ccc1Cl | 14.8 µM
95 | Cc1ccc(NS(=O)(=O)c2ccc(Cl)c(NC(=S)NC(=O)C3CCCCC3)c2)cc1Cl | 14 µM
96 | CCN1CCN(Cc2ccc(NC(=O)c3cc(NC(=O)C(=O)c4c[nH]c5ccccc45)cc(OC)c3)cc2C(F)(F)F)CC1 | 7.12 µM
97 | Cn1c(-c2ccccc2)cc2c3no[n+]([O-])c3ccc21 | 7.82 µM
98 | CCOC(=O)/C(=C\c1ccccc1)C(=O)c1cc(C(C)=O)c(Nc2ccccc2)s1 | 6.53 µM
99 | Cc1cc(C)c2nc(NNC(=O)c3ccc(S(=O)(=O)N4CCCC(C)C4)cc3)sc2c1 (stereo unspecified) | 4.52 µM
100 | Brc1ccc(CN2CCN(Cc3c[nH]c4ccccc34)CC2)cc1 | 6.91 µM
101 | O=C(CNc1ccc(F)cc1)N/N=C/c1c(O)ccc2ccccc12 | 19.5 µM
102 | Cc1ccc(NC(=O)c2cc(S(=O)(=O)NCCC3=CCCCC3)ccc2F)cc1 | 7.48 µM
103 | CCCCCCCCCCn1ccc(=N)cc1 | 0.543 µM
104 | C=C1CCc2c([nH]c3ccc(OCC(C)C)cc23)C1=O | 7.5 µM
105 | COc1cc(NC(=O)c2[nH]cnc2C(N)=O)cc(C(=O)Nc2cccc(C(F)(F)F)c2)c1 | 5.21 µM
106 | Oc1cc(-c2ccc(N3CCCCC3)nc2)cc2cccnc12 | 7.31 µM
